Data set [1] is described as follows: Particle size measurement (Coulter particle sizer LS230). The note with it: for mean size of nanoemulsion droplets comprising the active ingredient: after high-pressure homogenization, 10,000 psi (Examples 1, 2, 4); for mean particle size of raw active ingredient: before particle size reduction; for particle size of a significant portion / almost all of the particles: formulations comprising ethanol (Tables 5 and 6), FIG. 10, FIG. 11. Type of data set: physicochemical. An excerpt:
A Coulter particle sizer LS230 was used to measure particle size.

For data set [2] the following is noted: cited from earlier work.
The mark [3] stands for this setting: after high-pressure homogenization (Examples 1, 4, 7).
The mark [4] stands for this setting: after high-pressure homogenization, 10,000 psi (Examples 5, 6, 7).

On to `C[C@]12CC[C@@H]3c4ccc(O)cc4CC[C@H]3[C@@H]1CC[C@@H]2O` [estradiol, estra-1,3,5(10)-triene-3,17β-diol], for which, in data set [1], the “mean size of nanoemulsion droplets comprising the active ingredient” value is listed as “about 93 nm” and the “mean particle size of raw active ingredient” value was “about 542 microns”.
Regarding `CN1CCCC1c1cccnc1` (stereo not drawn) [Nicotine, S-3-(1-methyl-2-pyrrolidinyl) pyridine], the “solubility in water” value in data set [2] is “freely water-soluble”.
With “[R—[R*,R*-(E)]]-cyclic(L-alanyl-D-alanyl-N-methyl-L-leucyl-N-methyl-L-leucyl-N-methyl-L-valyl-3-hydroxy-N, 4-dimethyl-L-2-amino-6-octenoyl-L-α-amino-butyryl-N-methylglycyl-N-methyl-L-leucyl-L-valyl-N-methyl-L-leucyl) [cyclosporine]”, the “particle size of a significant portion / almost all of the particles” value in data set [1] was “less than 1 microns”.
As to `O=C(c1ccc(OCCN2CCCCC2)cc1)c1c(-c2ccc(O)cc2)sc2cc(O)ccc12` [raloxifene], the “size below which 100% of the particles lie” value in data set [1] (setting [3]) is recorded as “below 10 microns”. Further, the “milled mean particle size” value in data set [1] (setting [4]) is listed as 2.79 microns. Also, the “mean particle size of raw active ingredient” value in data set [1] is 15-30 μm. Besides, the “solubility in water” value in data set [2] is “very slightly soluble”.
Turning to `Nc1nc2c(ncn2COCCO)c(=O)[nH]1` [acyclovir, 2-amino-1,9-dihydro-9-[(2-hydroxyethoxy)methyl]-6H-purin-6-one], the “size below which 100% of the particles lie” value in data set [1] (setting [3]) is reported as “less than 3 microns”. Besides, in data set [1], the “mean size of nanoemulsion droplets comprising the active ingredient” value is on record as 132 nm, the “particle size of a significant portion / almost all of the particles” value is “less than 0.1 microns” and the “mean particle size of raw active ingredient” value is recorded as 54 μm. For the same compound, the “milled mean particle size” value in data set [1] (setting [4]) is on record as “about 2 microns”. Moreover, the “size below which 100% of the particles lie” value in data set [1] (after particle size reduction (FIG. 2, FIG. 4)) is on record as “less than 3 μm”. Moreover, the “particle size of a significant portion of the particles” value in data set [1] (formulation comprising N-methyl-pyrrolidinone (Table 4), FIG. 9, bimodal) is on record as “less than 0.4 microns”. Besides, in data set [2], the “solubility in water” value is on record as “moderately soluble”.
Turning to `NCCCC(O)(P(=O)(O)O)P(=O)(O)O` [alendronic acid], in data set [1] (after high-pressure homogenization, 10,000 psi (Example 3)), the “milled mean particle size” value is “about 0.2 μm”. Besides, the “mean particle size of raw active ingredient” value in data set [1] was 190-210 μm.

Values taken from US20070264349A1, “Nano-structured compositions and methods of making and using the same” (Novavax, Inc., priority 2006, published 2007).
